Holding throughout (assay): ERK1/2 phosphorylation
Common to all, as to format: cell-based
Common to all, as to details: CV1-FlpIn cells, mean ± S.E.M.; for Emax: pERK maximal response; for EC50: pERK, three-parameter logistic fit

For assay [1], the target named is T1, hCTR T295A (Homo sapiens, UniProt P30988, T295A).
T1 construct: c-Myc (N); expressed in transfected cells
T1 sequence (P30988 25-474 T295A): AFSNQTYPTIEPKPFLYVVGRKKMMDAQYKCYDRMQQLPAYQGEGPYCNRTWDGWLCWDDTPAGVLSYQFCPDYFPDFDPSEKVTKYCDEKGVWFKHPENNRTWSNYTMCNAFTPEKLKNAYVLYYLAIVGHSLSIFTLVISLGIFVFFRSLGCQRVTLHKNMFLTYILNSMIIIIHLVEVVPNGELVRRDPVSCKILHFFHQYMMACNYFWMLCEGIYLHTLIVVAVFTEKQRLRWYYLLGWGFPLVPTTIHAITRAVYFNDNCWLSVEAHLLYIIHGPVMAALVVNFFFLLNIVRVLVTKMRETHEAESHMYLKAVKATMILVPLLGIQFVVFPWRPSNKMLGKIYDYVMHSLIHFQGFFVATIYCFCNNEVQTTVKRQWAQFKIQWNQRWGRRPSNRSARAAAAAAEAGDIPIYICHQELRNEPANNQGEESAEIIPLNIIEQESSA
The procedure, abridged:
(§1)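 EC50 and Emax values derive from three-parameter logistic curves and combine functional affinity, efficacy and stimulus-response coupling. Responses are normalized to 10% FBS (6 min).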

The target of assay [2] is T2, hCTR Y284A (Homo sapiens, UniProt P30988, Y284A).
T2 construct: expressed in transfected cells
T2 sequence (P30988 25-474 Y284A): T1 sequence (P30988 25-474 T295A) with Y260A, A271T
Put shortly:
as §1

In assay [3] the target is T3, hCTR V358A (Homo sapiens, UniProt P30988, V358A).
T3 construct: c-Myc (N); expressed in transfected cells
T3 sequence (P30988 25-474 V358A): T1 sequence (P30988 25-474 T295A) with A271T, V334A
The procedure, abridged: as §1

Assay [4] has as its target T4, hCTR N286A (Homo sapiens, UniProt P30988, N286A).
T4 construct: c-Myc (N); expressed in transfected cells
T4 sequence (P30988 25-474 N286A): T1 sequence (P30988 25-474 T295A) with N262A, A271T
The procedure, abridged:
as §1

The target in assay [5] is T5, hCTR L297A (Homo sapiens, UniProt P30988, L297A).
T5 construct: c-Myc (N); expressed in transfected cells
T5 sequence (P30988 25-474 L297A): T1 sequence (P30988 25-474 T295A) with A271T, L273A
The procedure, abridged: as §1

Changes are numbered by the printed parent chain. Where a SMILES comes first, the peptide text is derived from it. Bridges are numbered along the chain shown (N, C = ends).

As a reminder, the Emax is the maximal effect, on the per cent scale that the assay sets. Turning to `CC[C@H](C)[C@H](NC(=O)[C@H](C)NC(=O)[C@@H](NC(=O)[C@H](CCC(N)=O)NC(=O)[C@@H]1CCCN1C(=O)[C@H](Cc1ccccc1)NC(=O)[C@@H](NC(=O)[C@H](Cc1c[nH]cn1)NC(=O)[C@H](Cc1ccccc1)NC(=O)[C@H](CCCCN)NC(=O)[C@H](CC(N)=O)NC(=O)[C@H](Cc1ccccc1)NC(=O)[C@H](CC(=O)O)NC(=O)[C@H](CCC(N)=O)NC(=O)[C@@H](NC(=O)[C@H](Cc1ccc(O)cc1)NC(=O)[C@@H](NC(=O)CNC(=O)[C@H](CC(C)C)NC(=O)[C@H](CCSC)NC(=O)[C@@H]1CSSC[C@H](N)C(=O)NCC(=O)N[C@@H](CC(N)=O)C(=O)N[C@@H](CC(C)C)C(=O)N[C@@H](CO)C(=O)N[C@@H]([C@@H](C)O)C(=O)N1)[C@@H](C)O)[C@@H](C)O)[C@@H](C)O)[C@@H](C)O)C(=O)NCC(=O)N[C@H](C(=O)NCC(=O)N[C@@H](C)C(=O)N1CCC[C@H]1C(N)=O)C(C)C` [hCT], the Emax in assay [1] is 48 ± 6%; in assay [2], 82 ± 7%; in assay [3], 160 ± 10%; in assay [4] it was 52 ± 5%; in assay [5] it was 63 ± 5%.
Usually EC50 stands for the concentration needed to bring the measured effect to its halfway point. Read a high EC50 as lower potency in that assay. On to `CC(C)C[C@H](NC(=O)CNC(=O)[C@H](C)NC(=O)[C@H](CC(C)C)NC(=O)[C@H](CCCNC(=N)N)NC(=O)[C@H](Cc1cnc[nH]1)NC(=O)[C@@H](NC(=O)[C@@H](NC(=O)[C@@H]1CSSC[C@H](NC(=O)[C@H](C)N)C(=O)N[C@@H](CC(=O)O)C(=O)N[C@@H]([C@@H](C)O)C(=O)N[C@@H](C)C(=O)N[C@@H]([C@@H](C)O)C(=O)N1)C(C)C)[C@@H](C)O)C(=O)N[C@@H](CC(C)C)C(=O)N[C@@H](CO)C(=O)N[C@@H](CCCNC(=N)N)C(=O)N[C@@H](CO)C(=O)NCC(=O)NCC(=O)N[C@H](C(=O)N[C@H](C(=O)N[C@@H](CCCCN)C(=O)N[C@@H](CC(N)=O)C(=O)N[C@@H](CC(N)=O)C(=O)N[C@@H](Cc1ccccc1)C(=O)N[C@H](C(=O)N1CCC[C@H]1C(=O)N[C@H](C(=O)N[C@@H](CC(N)=O)C(=O)N[C@H](C(=O)NCC(=O)N[C@@H](CO)C(=O)N[C@@H](CCCCN)C(=O)N[C@@H](C)C(=O)N[C@@H](Cc1ccccc1)C(N)=O)C(C)C)[C@@H](C)O)C(C)C)C(C)C)C(C)C` [hαCGRP], for which the Emax in assay [1] stood at 22 ± 4%; in assay [2], 79 ± 15%; in assay [3] it was 39 ± 8%; in assay [4], 31 ± 5%; in assay [5], 73 ± 12%. Also, the EC50 in assay [1] is 20.9 nM; in assay [2], 112 nM; in assay [3], 32.4 nM; in assay [4] it was 12.9 nM; in assay [5], 97.7 nM.
As to `CSCC[C@H](NC(=O)CNC(=O)[C@H](CO)NC(=O)[C@H](Cc1ccccc1)NC(=O)[C@H](CCCNC(=N)N)NC(=O)[C@H](Cc1c[nH]cn1)NC(=O)[C@H](Cc1ccccc1)NC(=O)[C@H](CC(N)=O)NC(=O)[C@H](CC(N)=O)NC(=O)[C@H](CC(C)C)NC(=O)[C@H](CC(N)=O)NC(=O)[C@H](CCCNC(=N)N)NC(=O)[C@H](Cc1c[nH]c2ccccc12)NC(=O)[C@H](Cc1ccc(O)cc1)NC(=O)[C@H](C)NC(=O)[C@H](CO)NC(=O)[C@H](CC(C)C)NC(=O)[C@@H](NC(=O)[C@@H]1CSSC[C@H](N)C(=O)N[C@@H](CO)C(=O)N[C@@H](CC(N)=O)C(=O)N[C@@H](CC(C)C)C(=O)N[C@@H](CO)C(=O)N[C@@H]([C@@H](C)O)C(=O)N1)C(C)C)C(=O)NCC(=O)N[C@@H](Cc1ccccc1)C(=O)NCC(=O)N1CCC[C@H]1C(=O)N[C@@H](CCC(=O)O)C(=O)N[C@H](C(=O)N1CCC[C@H]1C(N)=O)[C@@H](C)O` [pCT] (H-CSNLSTCVLSAYWRNLNNFHRFSGMGFGPETP-NH2; disulfide 1-7), the Emax in assay [1] came out at 50 ± 5%; in assay [2] it was 81 ± 6%; in assay [3], 101 ± 8%; in assay [4], 46 ± 5%; in assay [5] it was 59 ± 4%. Further, the EC50 in assay [1] is 0.759 nM; in assay [2] it was 1.2 nM; in assay [3], 2.24 nM; in assay [4], 1.2 nM; in assay [5] it was 0.977 nM.
`CC(C)C[C@H](NC(=O)[C@H](CC(N)=O)NC(=O)[C@H](CC(N)=O)NC(=O)[C@H](CO)NC(=O)[C@H](CO)NC(=O)[C@H](CCCNC(=N)N)NC(=O)[C@@H](NC(=O)[C@H](CC(C)C)NC(=O)[C@H](Cc1ccccc1)NC(=O)[C@H](CC(N)=O)NC(=O)[C@H](C)NC(=O)[C@H](CC(C)C)NC(=O)[C@H](CCCNC(=N)N)NC(=O)[C@H](CCC(N)=O)NC(=O)[C@@H](NC(=O)[C@H](C)NC(=O)[C@@H]1CSSC[C@H](NC(=O)[C@@H](N)CCCCN)C(=O)N[C@@H](CC(N)=O)C(=O)N[C@@H]([C@@H](C)O)C(=O)N[C@@H](C)C(=O)N[C@@H]([C@@H](C)O)C(=O)N1)[C@@H](C)O)C(C)C)C(=O)NCC(=O)N1CCC[C@H]1C(=O)N[C@H](C(=O)N[C@@H](CC(C)C)C(=O)N1CCC[C@H]1C(=O)N1CCC[C@H]1C(=O)N[C@H](C(=O)N[C@@H](CC(N)=O)C(=O)N[C@H](C(=O)NCC(=O)N[C@@H](CO)C(=O)N[C@@H](CC(N)=O)C(=O)N[C@H](C(=O)N[C@@H](Cc1ccc(O)cc1)C(N)=O)[C@@H](C)O)C(C)C)[C@@H](C)O)C(C)C` [rAmy]: the Emax stood at 28 ± 5% in assay [1]; 64 ± 6% in assay [2]; 59 ± 10% in assay [3]; 41 ± 6% in assay [4]; 49 ± 6% in assay [5].

The record behind these values is PMC5908784, “Extracellular loops 2 and 3 of the calcitonin receptor selectively modify agonist binding and efficacy” (Biochemical Pharmacology, 2018).
